Measured values published in PubChem BioAssay AID1963831 (Molecular Pharmacology Branch, DTP, NCI, 2024).

Test system: 889142-216-R-J1-PDC complex spheroid viability
Test: Anticancer human tumor 889142-216-R-J1-PDC patient-derived bladder carcinoma cell line growth inhibition [POLQ]
Settings: for IC50: curve of first compound; for viability, T/C: stronger effect = lower value
Procedure, shortened: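 PDC + HUVEC + MSC complex spheroids; POLQ inhibitors ± partner drugs; top conc. at/near clinical Cmax, else 10 microM (SN-38 1 microM), half-log dilutions; 37 degrees C, 5% CO2.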

[1] = second compound 0.0316 µM, first compound 0.0316 µM
[2] = second compound 0.0316 µM, first compound 0.1 µM
[3] = second compound 0.1 µM, first compound 0.0316 µM
[4] = second compound 0.1 µM, first compound 0.1 µM
[5] = second compound 0.316 µM, first compound 0.0316 µM
[6] = second compound 0.316 µM, first compound 0.1 µM
[7] = second compound 1 µM, first compound 0.0316 µM
[8] = second compound 1 µM, first compound 0.1 µM
[9] = second compound 3.16 µM, first compound 0.0316 µM
[10] = second compound 3.16 µM, first compound 0.1 µM
[11] = second compound 10 µM, first compound 0.0316 µM
[12] = second compound 10 µM, first compound 0.1 µM
[13] = second compound 0.0316 µM, first compound 0.316 µM
[14] = second compound 0.0316 µM, first compound 1 µM
[15] = second compound 0.0316 µM, first compound 3.16 µM
[16] = second compound 0.0316 µM, first compound 10 µM
[17] = second compound 0.1 µM, first compound 0.316 µM
[18] = second compound 0.1 µM, first compound 1 µM
[19] = second compound 0.1 µM, first compound 3.16 µM
[20] = second compound 0.1 µM, first compound 10 µM
[21] = second compound 0.316 µM, first compound 0.316 µM
[22] = second compound 0.316 µM, first compound 1 µM
[23] = second compound 0.316 µM, first compound 3.16 µM
[24] = second compound 0.316 µM, first compound 10 µM
[25] = second compound 1 µM, first compound 0.316 µM
[26] = second compound 1 µM, first compound 1 µM
[27] = second compound 1 µM, first compound 3.16 µM
[28] = second compound 1 µM, first compound 10 µM
[29] = second compound 3.16 µM, first compound 0.316 µM
[30] = second compound 3.16 µM, first compound 1 µM
[31] = second compound 3.16 µM, first compound 3.16 µM
[32] = second compound 3.16 µM, first compound 10 µM
[33] = second compound 10 µM, first compound 0.316 µM
[34] = second compound 10 µM, first compound 1 µM
[35] = second compound 10 µM, first compound 3.16 µM
[36] = second compound 10 µM, first compound 10 µM
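Further: spheroids exposed to compounds for seven days.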
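Wherever viability, T/C is given: 100% = DMSO vehicle control viability.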

In the case of `Cn1ncnc1[C@H]1c2n[nH]c(=O)c3cc(F)cc(c23)N[C@@H]1c1ccc(F)cc1` + Nc1ccc(C#CCN(C(=O)Cc2ncc(C(F)(F)F)cc2C(F)(F)F)c2ccc(F)cc2)nn1, the IC50 (second compound 0.0316 µM) is reported as over 0.1 µM, the IC50 (second compound 0.1 µM) is reported as over 0.1 µM and the IC50 (second compound 0.316 µM) is reported as over 0.1 µM. The IC50 (second compound 1 µM) was over 0.1 µM, the IC50 (second compound 3.16 µM) was over 0.1 µM and the IC50 (second compound 10 µM) was over 0.1 µM. For the same molecule, the viability, T/C (second compound 0.0316 µM, first compound 0.000316 µM) was 96.8%, the viability, T/C (second compound 0.0316 µM, first compound 0.001 µM) was 121% and the viability, T/C (second compound 0.0316 µM, first compound 0.00316 µM) was 110%. For the same molecule, the viability, T/C (second compound 0.0316 µM, first compound 0.01 µM) was 85.7%, the viability, T/C [1] was 90.3% and the viability, T/C [2] was 87.4%. It also gave a viability, T/C (second compound 0.1 µM, first compound 0.000316 µM) of 176%, a viability, T/C (second compound 0.1 µM, first compound 0.001 µM) of 83.6% and a viability, T/C (second compound 0.1 µM, first compound 0.00316 µM) of 92%. It also gave a viability, T/C (second compound 0.1 µM, first compound 0.01 µM) of 91.4%, a viability, T/C [3] of 105% and a viability, T/C [4] of 101%. For the same molecule, the viability, T/C (second compound 0.316 µM, first compound 0.000316 µM) was 108%, the viability, T/C (second compound 0.316 µM, first compound 0.001 µM) was 102% and the viability, T/C (second compound 0.316 µM, first compound 0.00316 µM) was 91.3%. For the same molecule, the viability, T/C (second compound 0.316 µM, first compound 0.01 µM) was 79.6%, the viability, T/C [5] was 97.2% and the viability, T/C [6] was 73.2%. It also gave a viability, T/C (second compound 1 µM, first compound 0.000316 µM) of 127%, a viability, T/C (second compound 1 µM, first compound 0.001 µM) of 81.1% and a viability, T/C (second compound 1 µM, first compound 0.00316 µM) of 124%. The viability, T/C (second compound 1 µM, first compound 0.01 µM) was 95.9%, the viability, T/C [7] was 67.4% and the viability, T/C [8] was 72.2%. The viability, T/C (second compound 3.16 µM, first compound 0.000316 µM) was 110%, the viability, T/C (second compound 3.16 µM, first compound 0.001 µM) was 124% and the viability, T/C (second compound 3.16 µM, first compound 0.00316 µM) was 135%. The viability, T/C (second compound 3.16 µM, first compound 0.01 µM) was 77.1%, the viability, T/C [9] was 92.3% and the viability, T/C [10] was 87.2%. The viability, T/C (second compound 10 µM, first compound 0.000316 µM) was 122%, the viability, T/C (second compound 10 µM, first compound 0.001 µM) was 93.5% and the viability, T/C (second compound 10 µM, first compound 0.00316 µM) was 113%. The viability, T/C (second compound 10 µM, first compound 0.01 µM) was 90.2%, the viability, T/C [11] was 115% and the viability, T/C [12] was 80.4%.
For `COc1cc2cc(C(=O)CCC(=O)O)sc2cc1OC` + Cc1cccc(N(C)C(=O)C2C(O)CCN2c2nc(C)cc(C(F)(F)F)c2C#N)c1, the IC50 (second compound 0.0316 µM) was over 10 µM, the IC50 (second compound 0.1 µM) was over 10 µM and the IC50 (second compound 0.316 µM) was over 10 µM. For the same molecule, the IC50 (second compound 1 µM) was over 10 µM, the IC50 (second compound 3.16 µM) was over 10 µM and the IC50 (second compound 10 µM) was over 10 µM. The viability, T/C [1] was 85.5%, the viability, T/C [2] was 127% and the viability, T/C [13] was 89.6%. For the same molecule, the viability, T/C [14] was 99.1%, the viability, T/C [15] was 104% and the viability, T/C [16] was 76.6%. It also gave a viability, T/C [3] of 76.5%, a viability, T/C [4] of 101% and a viability, T/C [17] of 92.7%. The viability, T/C [18] was 115%, the viability, T/C [19] was 104% and the viability, T/C [20] was 90.6%. For the same molecule, the viability, T/C [5] was 109%, the viability, T/C [6] was 92.6% and the viability, T/C [21] was 72.3%. For the same molecule, the viability, T/C [22] was 104%, the viability, T/C [23] was 132% and the viability, T/C [24] was 74.5%. The viability, T/C [7] was 100%, the viability, T/C [8] was 114% and the viability, T/C [25] was 97.9%. For the same molecule, the viability, T/C [26] was 96.9%, the viability, T/C [27] was 102% and the viability, T/C [28] was 66.4%. The viability, T/C [9] was 96.8%, the viability, T/C [10] was 85.8% and the viability, T/C [29] was 89.7%. For the same molecule, the viability, T/C [30] was 94.4%, the viability, T/C [31] was 104% and the viability, T/C [32] was 78.9%. The viability, T/C [11] was 108%, the viability, T/C [12] was 88.5% and the viability, T/C [33] was 78.5%. The viability, T/C [34] was 80.1%, the viability, T/C [35] was 72.3% and the viability, T/C [36] was 65.6%.
For `COc1cc(C2c3cc4c(cc3C(OC3OC5COC(C)OC5C(O)C3O)C3COC(=O)C23)OCO4)cc(OC)c1O` (stereo unspecified) + Cc1cccc(N(C)C(=O)C2C(O)CCN2c2nc(C)cc(C(F)(F)F)c2C#N)c1, the IC50 (second compound 0.0316 µM) was over 10 µM, the IC50 (second compound 0.1 µM) was over 10 µM and the IC50 (second compound 0.316 µM) was over 10 µM. The IC50 (second compound 1 µM) was over 10 µM, the IC50 (second compound 3.16 µM) was over 10 µM and the IC50 (second compound 10 µM) was 4.63 µM. For the same molecule, the viability, T/C [1] was 83.9%, the viability, T/C [2] was 74.5% and the viability, T/C [13] was 65.3%. The viability, T/C [14] was 53.5%, the viability, T/C [15] was 65.1% and the viability, T/C [16] was 66%. For the same molecule, the viability, T/C [3] was 82.6%, the viability, T/C [4] was 85.2% and the viability, T/C [17] was 70.9%. For the same molecule, the viability, T/C [18] was 56.4%, the viability, T/C [19] was 68.5% and the viability, T/C [20] was 57.6%. For the same molecule, the viability, T/C [5] was 93.1%, the viability, T/C [6] was 86.9% and the viability, T/C [21] was 59.4%. For the same molecule, the viability, T/C [22] was 64%, the viability, T/C [23] was 70.1% and the viability, T/C [24] was 52.6%. For the same molecule, the viability, T/C [7] was 86.2%, the viability, T/C [8] was 83.6% and the viability, T/C [25] was 62%. The viability, T/C [26] was 45.9%, the viability, T/C [27] was 70.6% and the viability, T/C [28] was 58.8%. It also gave a viability, T/C [9] of 83%, a viability, T/C [10] of 81.2% and a viability, T/C [29] of 64.2%. The viability, T/C [30] was 62.1%, the viability, T/C [31] was 62.4% and the viability, T/C [32] was 52.4%. It also gave a viability, T/C [11] of 77.4%, a viability, T/C [12] of 74.1% and a viability, T/C [33] of 61%. It also gave a viability, T/C [34] of 61%, a viability, T/C [35] of 59.8% and a viability, T/C [36] of 40.4%.
